Results reported in ChEMBL document CHEMBL6127079, “Design and synthesis of spiro[pyrrolidine-3,3'-quinoline]-2,2'-dione derivatives as novel antifungal agents targeting chitin synthase” (Eur J Med Chem, 2024).
pIC50: −log10 of the molar value. In brackets after ≈: the same amount, converted by molar mass.

How the values were obtained:
Candida tropicalis = assay: Inhibition of chitin synthase extracted from Candida tropicalis ATCC 750 using UDP-GlcNAc as substrate assessed as inhibition rate at 300 ug/ml by TMB based microplate analyzer relative to control; conditions: dose 300.0 µg/ml
[1] = Inhibition of chitin synthase extracted from Candida tropicalis ATCC 750 using UDP-GlcNAc as substrate assessed as inhibition rate by TMB based microplate analyzer relative to control
Candida albicans [2] = assay: Antifungal activity against Candida albicans ATCC 76615 assessed as inhibition of growth incubated for 24 hrs by two-fold serial dilution method; format: functional
Aspergillus flavus [3] = assay: Antifungal activity against Aspergillus flavus ATCC 16870 assessed as inhibition of growth incubated for 24 hrs by two-fold serial dilution method; format: functional
Aspergillus fumigatus [4] = assay: Antifungal activity against Aspergillus fumigatus GIMCC 3.19 assessed as inhibition of growth incubated for 24 hrs by two-fold serial dilution method; format: functional
Cryptococcus neoformans [5] = assay: Antifungal activity against Cryptococcus neoformans ATCC 32719 assessed as inhibition of growth incubated for 24 hrs by two-fold serial dilution method; format: functional
Candida albicans [6] = assay: Antifungal activity against drug-resistant Candida albicans ATCC 76615 assessed as inhibition of cell wall synthesis in presence of sorbitol incubated for 24 hrs; format: functional
Aspergillus fumigatus [7] = assay: Antifungal activity against drug-resistant Aspergillus fumigatus GIMCC 3.19 assessed as inhibition of cell wall synthesis in presence of sorbitol incubated for 24 hrs; format: functional
Cryptococcus neoformans [8] = assay: Antifungal activity against drug-resistant Cryptococcus neoformans ATCC 32719 assessed as inhibition of cell wall synthesis in presence of sorbitol incubated for 24 hrs; format: functional
Candida albicans [9] = assay: Antifungal activity against fluconazole-resistant Candida albicans ATCC 76615 assessed as inhibition of fungal growth incubated for 24 to 72 hrs; format: functional; conditions: time 24-72 hrs
Aspergillus flavus [10] = assay: Antifungal activity against fluconazole-resistant Aspergillus flavus ATCC 16870 assessed as inhibition of fungal growth incubated for 24 to 72 hrs; format: functional; conditions: time 24-72 hrs
Aspergillus fumigatus [11] = assay: Antifungal activity against fluconazole-resistant Aspergillus fumigatus GIMCC 3.19 assessed as inhibition of fungal growth incubated for 24 to 72 hrs; format: functional; conditions: time 24-72 hrs
Cryptococcus neoformans [12] = assay: Antifungal activity against fluconazole-resistant Cryptococcus neoformans ATCC 32719 assessed as inhibition of fungal growth incubated for 24 to 72 hrs; format: functional; conditions: time 24-72 hrs
Candida albicans [13] = assay: Antifungal activity against micafungin-resistant Candida albicans ATCC 76615 assessed as inhibition of fungal growth incubated for 24 to 72 hrs; format: functional; conditions: time 24-72 hrs
Candida albicans [14] = assay: Antifungal activity against Candida albicans ATCC 76615 incubated for 24 hrs by half broth dilution based checkerboard method; format: functional
Aspergillus flavus [15] = assay: Antifungal activity against Aspergillus flavus ATCC 16870 incubated for 24 hrs by half broth dilution based checkerboard method; format: functional
Aspergillus fumigatus [16] = assay: Antifungal activity against Aspergillus fumigatus GIMCC 3.19 incubated for 24 hrs by half broth dilution based checkerboard method; format: functional
Cryptococcus neoformans [17] = assay: Antifungal activity against Cryptococcus neoformans ATCC 32719 incubated for 24 hrs by half broth dilution based checkerboard method; format: functional
Candida albicans [18] = assay: Antifungal activity against Candida albicans ATCC 76615 assessed as fluconazole MIC incubated for 24 hrs in presence of fluconazole by half broth dilution based checkerboard method; format: functional
Aspergillus flavus [19] = assay: Antifungal activity against Aspergillus flavus ATCC 16870 assessed as fluconazole MIC incubated for 24 hrs in presence of fluconazole by half broth dilution based checkerboard method; format: functional
Aspergillus fumigatus [20] = assay: Antifungal activity against Aspergillus fumigatus GIMCC 3.19 assessed as fluconazole MIC incubated for 24 hrs in presence of fluconazole by half broth dilution based checkerboard method; format: functional
Cryptococcus neoformans [21] = assay: Antifungal activity against Cryptococcus neoformans ATCC 32719 assessed as fluconazole MIC incubated for 24 hrs in presence of fluconazole by half broth dilution based checkerboard method; format: functional
Aspergillus fumigatus [22] = assay: Synergistic antifungal activity against Aspergillus fumigatus GIMCC 3.19 assessed as fractional inhibitory concentration index in presence of fluconazole incubated for 24 hrs by half broth dilution based checkerboard method; format: functional
Candida albicans [23] = assay: Synergistic antifungal activity against Candida albicans ATCC 76615 assessed as fractional inhibitory concentration index in presence of fluconazole incubated for 24 hrs by half broth dilution based checkerboard method; format: functional
Aspergillus flavus [24] = assay: Synergistic antifungal activity against Aspergillus flavus ATCC 16870 assessed as fractional inhibitory concentration index in presence of fluconazole incubated for 24 hrs by half broth dilution based checkerboard method; format: functional
Cryptococcus neoformans [25] = assay: Synergistic antifungal activity against Cryptococcus neoformans ATCC 32719 assessed as fractional inhibitory concentration index in presence of fluconazole incubated for 24 hrs by half broth dilution based checkerboard method; format: functional
Candida albicans [26] = assay: Antifungal activity against Candida albicans ATCC 76615 assessed as Polyoxin B MIC incubated for 24 hrs in presence of fluconazole by half broth dilution based checkerboard method; format: functional
Aspergillus flavus [27] = assay: Antifungal activity against Aspergillus flavus ATCC 16870 assessed as Polyoxin B MIC incubated for 24 hrs in presence of fluconazole by half broth dilution based checkerboard method; format: functional
Aspergillus fumigatus [28] = assay: Antifungal activity against Aspergillus fumigatus GIMCC 3.19 assessed as Polyoxin B MIC incubated for 24 hrs in presence of fluconazole by half broth dilution based checkerboard method; format: functional
Cryptococcus neoformans [29] = assay: Antifungal activity against Cryptococcus neoformans ATCC 32719 assessed as Polyoxin B MIC incubated for 24 hrs in presence of fluconazole by half broth dilution based checkerboard method; format: functional
Candida albicans [30] = assay: Synergistic antifungal activity against Candida albicans ATCC 76615 assessed as fractional inhibitory concentration index in presence of Polyoxin B incubated for 24 hrs by half broth dilution based checkerboard method; format: functional
Aspergillus flavus [31] = assay: Synergistic antifungal activity against Aspergillus flavus ATCC 16870 assessed as fractional inhibitory concentration index in presence of Polyoxin B incubated for 24 hrs by half broth dilution based checkerboard method; format: functional
Aspergillus fumigatus [32] = assay: Synergistic antifungal activity against Aspergillus fumigatus GIMCC 3.19 assessed as fractional inhibitory concentration index in presence of Polyoxin B incubated for 24 hrs by half broth dilution based checkerboard method; format: functional
Cryptococcus neoformans [33] = assay: Synergistic antifungal activity against Cryptococcus neoformans ATCC 32719 assessed as fractional inhibitory concentration index in presence of Polyoxin B incubated for 24 hrs by half broth dilution based checkerboard method; format: functional
Aspergillus flavus [34] = assay: Antifungal activity against drug-resistant Aspergillus flavus ATCC 16870 assessed as inhibition of cell wall synthesis in presence of sorbitol incubated for 24 hrs; format: functional

SMILES	inhibition (Candida tropicalis)	pIC50 [1]	MIC (Candida albicans [2])	MIC (Aspergillus flavus [3])	MIC (Aspergillus fumigatus [4])	MIC (Cryptococcus neoformans [5])	MIC (Candida albicans [6])	MIC (Aspergillus fumigatus [7])	MIC (Cryptococcus neoformans [8])	MIC (Candida albicans [9])	MIC (Aspergillus flavus [10])	MIC (Aspergillus fumigatus [11])	MIC (Cryptococcus neoformans [12])	MIC (Candida albicans [13])	MIC (Candida albicans [14])	MIC (Aspergillus flavus [15])	MIC (Aspergillus fumigatus [16])	MIC (Cryptococcus neoformans [17])	MIC (Candida albicans [18])	MIC (Aspergillus flavus [19])	other results
O=C(/C=C/C(=O)Nc1ccc2c(c1)NC(=O)C1(CCNC1=O)C2)Nc1ccc(Br)cc1 (racemic)	72.7%	3.75	16 µg/mL (≈ 33.1 µM)	16 µg/mL (≈ 33.1 µM)	32 µg/mL (≈ 66.2 µM)	16 µg/mL (≈ 33.1 µM)	128 µg/mL	256 µg/mL	256 µg/mL	64 µg/mL (≈ 132 µM)	64 µg/mL (≈ 132 µM)	64 µg/mL (≈ 132 µM)	32 µg/mL (≈ 66.2 µM)	32 µg/mL (≈ 66.2 µM)	4 µg/mL	8 µg/mL	8 µg/mL	4 µg/mL	4 µg/mL	4 µg/mL	MIC (Aspergillus fumigatus [20]): 2 µg/mL; MIC (Cryptococcus neoformans [21]): 4 µg/mL; fractional inhibitory concentration index (FICI) (Aspergillus fumigatus [22]): 0.75; fractional inhibitory concentration index (FICI) (Candida albicans [23]): 0.75; fractional inhibitory concentration index (FICI) (Aspergillus flavus [24]): 1.5; fractional inhibitory concentration index (FICI) (Cryptococcus neoformans [25]): 1; MIC (Candida albicans [26]): 8 µg/mL; MIC (Aspergillus flavus [27]): 8 µg/mL; MIC (Aspergillus fumigatus [28]): 16 µg/mL; MIC (Cryptococcus neoformans [29]): 4 µg/mL; fractional inhibitory concentration index (FICI) (Candida albicans [30]): 0.75; fractional inhibitory concentration index (FICI) (Aspergillus flavus [31]): 1.5; fractional inhibitory concentration index (FICI) (Aspergillus fumigatus [32]): 0.75; fractional inhibitory concentration index (FICI) (Cryptococcus neoformans [33]): 1
O=C(CN1CCC(C(=O)Nc2cccc3ccccc23)CC1)Nc1ccc2c(c1)NC(=O)C1(CCNC1=O)C2 (racemic)	84%	4.00	16 µg/mL (≈ 30.4 µM)	8 µg/mL (≈ 15.2 µM)	8 µg/mL (≈ 15.2 µM)	32 µg/mL (≈ 60.9 µM)	256 µg/mL	512 µg/mL	512 µg/mL	32 µg/mL (≈ 60.9 µM)	64 µg/mL (≈ 122 µM)	64 µg/mL (≈ 122 µM)	64 µg/mL (≈ 122 µM)	32 µg/mL (≈ 60.9 µM)	16 µg/mL	8 µg/mL	8 µg/mL	2 µg/mL	1 µg/mL	1.5 µg/mL	MIC (Aspergillus flavus [34]): 128 µg/mL; MIC (Aspergillus fumigatus [20]): 2 µg/mL; MIC (Cryptococcus neoformans [21]): 0.75 µg/mL; fractional inhibitory concentration index (FICI) (Aspergillus fumigatus [22]): 1; fractional inhibitory concentration index (FICI) (Candida albicans [23]): 0.75; fractional inhibitory concentration index (FICI) (Aspergillus flavus [24]): 0.75; fractional inhibitory concentration index (FICI) (Cryptococcus neoformans [25]): 1; MIC (Candida albicans [26]): 16 µg/mL; MIC (Aspergillus flavus [27]): 8 µg/mL; MIC (Aspergillus fumigatus [28]): 8 µg/mL; MIC (Cryptococcus neoformans [29]): 32 µg/mL; fractional inhibitory concentration index (FICI) (Candida albicans [30]): 0.75; fractional inhibitory concentration index (FICI) (Aspergillus flavus [31]): 2; fractional inhibitory concentration index (FICI) (Aspergillus fumigatus [32]): 1.5; fractional inhibitory concentration index (FICI) (Cryptococcus neoformans [33]): 1
O=C(CN1CCC(C(=O)Nc2ccc(Br)cc2)CC1)Nc1ccc2c(c1)NC(=O)C1(CCNC1=O)C2 (racemic)	63%	3.94	16 µg/mL (≈ 28.9 µM)	32 µg/mL (≈ 57.7 µM)	16 µg/mL (≈ 28.9 µM)	8 µg/mL (≈ 14.4 µM)	256 µg/mL	512 µg/mL	128 µg/mL	32 µg/mL (≈ 57.7 µM)	64 µg/mL (≈ 115 µM)	64 µg/mL (≈ 115 µM)	32 µg/mL (≈ 57.7 µM)	32 µg/mL (≈ 57.7 µM)	16 µg/mL	32 µg/mL	16 µg/mL	8 µg/mL	4 µg/mL	4 µg/mL	MIC (Aspergillus flavus [34]): 256 µg/mL; MIC (Aspergillus fumigatus [20]): 2 µg/mL; MIC (Cryptococcus neoformans [21]): 2 µg/mL; fractional inhibitory concentration index (FICI) (Aspergillus fumigatus [22]): 1; fractional inhibitory concentration index (FICI) (Candida albicans [23]): 1; fractional inhibitory concentration index (FICI) (Aspergillus flavus [24]): 1.25; fractional inhibitory concentration index (FICI) (Cryptococcus neoformans [25]): 0.75; MIC (Candida albicans [26]): 16 µg/mL; MIC (Aspergillus flavus [27]): 32 µg/mL; MIC (Aspergillus fumigatus [28]): 16 µg/mL; MIC (Cryptococcus neoformans [29]): 8 µg/mL; fractional inhibitory concentration index (FICI) (Candida albicans [30]): 1; fractional inhibitory concentration index (FICI) (Aspergillus flavus [31]): 0.5; fractional inhibitory concentration index (FICI) (Aspergillus fumigatus [32]): 1; fractional inhibitory concentration index (FICI) (Cryptococcus neoformans [33]): 1.5
